Assay results published in US6355799B1, “Substituted benzene compounds, process for their preparation, and herbicidal and defoliant compositions containing them” (ISK Americas Incorporated, priority 1997, dated 2002).

Experiments:
Format in all cases: in vivo
[1] = system: redroot pigweed (Amaranthus retroflexus, AMARE); experiment: Pre-emerge test, greenhouse herbicide activity screening; details: pre-emerge, 14 days after application
Method in brief: (§1)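 Rating: 0–100 visual injury, 14 DAA. Application: acetone, 187 l/ha, 15–1000 g ai/ha, flat-fan track sprayer with nozzle 40–45 cm above soil or canopy. Post-emerge runs used 0.25% v/v surfactant on 2–3 leaf plants.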

[2] = system: barnyardgrass (Echinochloa crus-galli, ECHCG); experiment: as above; details: pre-emerge, 14 days after application
Method in brief: (§2)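 Visual ratings on a 0-100 scale (0 no damage, 100 all plants dead) were taken at 14 days after treatment. Rates of 15-1000 g ai/ha in acetone, 187 l/ha, were sprayed onto soil one day after planting (pre-emerge) or onto 2-3 leaf plants with 0.25% v/v surfactant (post-emerge).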

[3] = system: green foxtail (Setaria viridis, SETVI); experiment: as above; details: pre-emerge, 14 days after application
Method in brief: as §2

[4] = system: ivyleaf morningglory (Ipomoea hederacea, IPOHE); experiment: as above; details: pre-emerge, 14 days after application
Method in brief: as §2

[5] = system: johnsongrass (Sorghum halepense, SORHA); experiment: as above; details: pre-emerge, 14 days after application, rating scale 0-100
Method in brief: as §2

[6] = system: lambsquarters (Chenopodium album, CHEAL); experiment: as above; details: pre-emerge, 14 days after application
Method in brief: as §2

[7] = system: large crabgrass (Digitaria sanguinalis, DIGSA); experiment: as above; details: pre-emerge, 14 days after application
Method in brief: as §2

[8] = system: sicklepod (Cassia obtusifolia, CASOB); experiment: as above; details: pre-emerge, 14 days after application
Method in brief: as §2

[9] = system: velvetleaf (Abutilon theophrasti, ABUTH); experiment: as above; details: pre-emerge, 14 days after application
Method in brief: as §2

[10] = system: barnyardgrass (Echinochloa crus-galli, ECHCG); experiment: Post-emerge test, greenhouse herbicide activity screening; details: post-emerge, 14 days after application, rating scale 0-100
Method in brief: as §1

[11] = system: green foxtail (Setaria viridis, SETVI); experiment: as above; details: post-emerge, 14 days after application, rating scale 0-100
Method in brief: as §1

[12] = system: ivyleaf morningglory (Ipomoea hederacea, IPOHE); experiment: as above; details: post-emerge, 14 days after application, rating scale 0-100
Method in brief: as §1

[13] = system: johnsongrass (Sorghum halepense, SORHA); experiment: as above; details: post-emerge, 14 days after application, rating scale 0-100
Method in brief: as §1

[14] = system: lambsquarters (Chenopodium album, CHEAL); experiment: as above; details: post-emerge, 14 days after application, rating scale 0-100
Method in brief: as §1

[15] = system: large crabgrass (Digitaria sanguinalis, DIGSA); experiment: as above; details: post-emerge, 14 days after application, rating scale 0-100
Method in brief: as §1

[16] = system: redroot pigweed (Amaranthus retroflexus, AMARE); experiment: as above; details: post-emerge, 14 days after application
Method in brief: as §1

[17] = system: sicklepod (Cassia obtusifolia, CASOB); experiment: as above; details: post-emerge, 14 days after application, rating scale 0-100
Method in brief: as §1

[18] = system: velvetleaf (Abutilon theophrasti, ABUTH); experiment: as above; details: post-emerge, 14 days after application, rating scale 0-100
Method in brief: as §1

[19] = system: field corn (Zea mays L., var. Dekalb 535, CORN); experiment: Pre-emerge test, crop safety; details: pre-emerge, 14 days after application, scale 0-100
Method in brief: (§3)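 Applied at 15–1000 g ai/ha from acetone in 187 l/ha spray volume. Post-emergence applications included 0.25% v/v non-ionic surfactant and reached plants sown 8–21 days before. Pre-emergence applications were incorporated by surface watering. Efficacy or crop damage was rated on a 0–100 scale after 14 days.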

[20] = system: upland rice (Oryza sp., var. Tebonnet, RICE); experiment: Pre-emerge test, crop safety; details: pre-emerge, 14 days after application, scale 0-100
Method in brief: as §3

[21] = system: field corn (Zea mays L., var. Dekalb 535, CORN); experiment: Post-emerge test, crop safety; details: post-emerge, 14 days after application, rating scale 0-100
Method in brief: as §2

[22] = system: upland rice (Oryza sp., var. Tebonnet, RICE); experiment: Post-emerge test, crop safety; details: post-emerge, 14 days after application, rating scale 0-100
Method in brief: as §2

[23] = 250 g ai/ha, rating scale 0-100

SMILES: COc1c(Cl)cc(F)c(-n2c(=O)cc(C(F)(F)F)n(C)c2=O)c1OC(=O)c1ccc2ccccc2c1 [Compound 16-7, 3-[4-chloro-6fluoro-3-methoxy-2-(2-naphthoyloxy)phenyl]-1-methyl-6-trifluoromethyl-2,4(1H, 3H)-pyrimidinedione]
- phytotoxicity rating AMARE ([1]; 63 g ai/ha, rating scale 0-100): 0
- phytotoxicity rating AMARE [1, 23]: 50
- phytotoxicity rating ECHCG ([2]; 63 g ai/ha, rating scale 0-100): 0
- phytotoxicity rating ECHCG [2, 23]: 0
- phytotoxicity rating SETVI ([3]; 63 g ai/ha, rating scale 0-100): 0
- phytotoxicity rating SETVI [3, 23]: 0
- phytotoxicity rating IPOHE ([4]; 63 g ai/ha, rating scale 0-100): 0
- phytotoxicity rating IPOHE [4, 23]: 0
- phytotoxicity rating SORHA ([5]; 63 g ai/ha): 0
- phytotoxicity rating SORHA ([5]; 250 g ai/ha): 0
- phytotoxicity rating CHEAL ([6]; 63 g ai/ha, rating scale 0-100): 0
- phytotoxicity rating CHEAL [6, 23]: 0
- phytotoxicity rating DIGSA ([7]; 63 g ai/ha, rating scale 0-100): 0
- phytotoxicity rating DIGSA [7, 23]: 0
- phytotoxicity rating CASOB ([8]; 63 g ai/ha, rating scale 0-100): 0
- phytotoxicity rating CASOB [8, 23]: 0
- phytotoxicity rating ABUTH ([9]; 63 g ai/ha, rating scale 0-100): 0
- phytotoxicity rating ABUTH [9, 23]: 0
- Post-emerge Herbicidal Activity ECHCG (phytotoxicity rating) ([10]; 63 g ai/ha): 0
- Post-emerge Herbicidal Activity ECHCG (phytotoxicity rating) ([10]; 250 g ai/ha): 0
- Post-emerge Herbicidal Activity SETVI (phytotoxicity rating) ([11]; 63 g ai/ha): 0
- Post-emerge Herbicidal Activity SETVI (phytotoxicity rating) ([11]; 250 g ai/ha): 0
- Post-emerge Herbicidal Activity IPOHE (phytotoxicity rating) ([12]; 63 g ai/ha): 0
- Post-emerge Herbicidal Activity IPOHE (phytotoxicity rating) ([12]; 250 g ai/ha): 30
- Post-emerge Herbicidal Activity SORHA (phytotoxicity rating) ([13]; 63 g ai/ha): 0
- Post-emerge Herbicidal Activity SORHA (phytotoxicity rating) ([13]; 250 g ai/ha): 0
- Post-emerge Herbicidal Activity CHEAL (phytotoxicity rating) ([14]; 63 g ai/ha): 0
- Post-emerge Herbicidal Activity CHEAL (phytotoxicity rating) ([14]; 250 g ai/ha): 0
- Post-emerge Herbicidal Activity DIGSA (phytotoxicity rating) ([15]; 63 g ai/ha): 0
- Post-emerge Herbicidal Activity DIGSA (phytotoxicity rating) ([15]; 250 g ai/ha): 0
- Post-emerge Herbicidal Activity AMARE (phytotoxicity rating) ([16]; 63 g ai/ha, rating scale 0-100 (0 no damage, 100 complete death)): 0
- Post-emerge Herbicidal Activity AMARE (phytotoxicity rating) [16, 23]: 0
- Post-emerge Herbicidal Activity CASOB (phytotoxicity rating) ([17]; 63 g ai/ha): 0
- Post-emerge Herbicidal Activity CASOB (phytotoxicity rating) ([17]; 250 g ai/ha): 30
- Post-emerge Herbicidal Activity ABUTH (phytotoxicity rating) ([18]; 63 g ai/ha): 0
- Post-emerge Herbicidal Activity ABUTH (phytotoxicity rating) ([18]; 250 g ai/ha): 0

SMILES: COc1ccccc1C=CC(=O)Nc1c(OC)c(Cl)cc(F)c1-n1c(=O)cc(C(F)(F)F)n(C)c1=O [2-127]
- phytotoxicity rating AMARE ([1]; 63 g ai/ha, scale 0-100): 90
- phytotoxicity rating AMARE ([1]; 250 g ai/ha, scale 0-100): 100
- phytotoxicity rating ECHCG ([2]; 63 g ai/ha, scale 0-100): 0
- phytotoxicity rating ECHCG ([2]; 250 g ai/ha, scale 0-100): 40
- phytotoxicity rating SETVI ([3]; 63 g ai/ha, scale 0-100): 20
- phytotoxicity rating SETVI ([3]; 250 g ai/ha, scale 0-100): 80
- phytotoxicity rating IPOHE ([4]; 63 g ai/ha, scale 0-100): 0
- phytotoxicity rating IPOHE ([4]; 250 g ai/ha, scale 0-100): 50
- phytotoxicity rating CHEAL ([6]; 63 g ai/ha, scale 0-100): 100
- phytotoxicity rating CHEAL ([6]; 250 g ai/ha, scale 0-100): 100
- phytotoxicity rating DIGSA ([7]; 63 g ai/ha, scale 0-100): 30
- phytotoxicity rating DIGSA ([7]; 250 g ai/ha, scale 0-100): 100
- phytotoxicity rating CASOB ([8]; 63 g ai/ha, scale 0-100): 0
- phytotoxicity rating CASOB ([8]; 250 g ai/ha, scale 0-100): 40
- phytotoxicity rating ABUTH ([9]; 63 g ai/ha, scale 0-100): 100
- phytotoxicity rating ABUTH ([9]; 250 g ai/ha, scale 0-100): 100
- phytotoxicity rating CORN (crop damage) ([19]; 63 g ai/ha): 0
- phytotoxicity rating CORN (crop damage) ([19]; 250 g ai/ha): 0
- phytotoxicity rating RICE (crop damage) ([20]; 63 g ai/ha): 0
- phytotoxicity rating RICE (crop damage) ([20]; 250 g ai/ha): 10
- ECHCG phytotoxicity rating ([10]; 63 g ai/ha): 30
- ECHCG phytotoxicity rating ([10]; 250 g ai/ha): 20
- SETVI phytotoxicity rating ([11]; 63 g ai/ha): 30
- SETVI phytotoxicity rating ([11]; 250 g ai/ha): 40
- IPOHE phytotoxicity rating ([12]; 63 g ai/ha): 100
- IPOHE phytotoxicity rating ([12]; 250 g ai/ha): 95
- SORHA phytotoxicity rating ([13]; 63 g ai/ha): 20
- SORHA phytotoxicity rating ([13]; 250 g ai/ha): 20
- CHEAL phytotoxicity rating ([14]; 63 g ai/ha): 70
- CHEAL phytotoxicity rating ([14]; 250 g ai/ha): 100
- DIGSA phytotoxicity rating ([15]; 63 g ai/ha): 20
- DIGSA phytotoxicity rating ([15]; 250 g ai/ha): 30
- AMARE phytotoxicity rating ([16]; 63 g ai/ha, rating scale 0-100): 100
- AMARE phytotoxicity rating [16, 23]: 100
- CASOB phytotoxicity rating ([17]; 63 g ai/ha): 100
- CASOB phytotoxicity rating ([17]; 250 g ai/ha): 60
- ABUTH phytotoxicity rating ([18]; 63 g ai/ha): 100
- ABUTH phytotoxicity rating ([18]; 250 g ai/ha): 100
- CORN phytotoxicity rating (crop damage) ([21]; 63 g ai/ha): 10
- CORN phytotoxicity rating (crop damage) ([21]; 250 g ai/ha): 15
- RICE phytotoxicity rating (crop damage) ([22]; 63 g ai/ha): 30
- RICE phytotoxicity rating (crop damage) ([22]; 250 g ai/ha): 35
